Values of other authors in patent US7879572B2, “Regulation of F1-ATPase beta subunit cellular location” (Board of Supervisors of Louisiana State University And …, priority 2004, dated 2011).

How the values were obtained:
islet cells = conditions: 8-Br-cAMP 1 mM, independent of extracellular Ca2+

Oc1ccc2c3c1O[C@H]1c4[nH]c5c(c4C[C@@]4(O)[C@@H](C2)N(CC2CC2)CC[C@]314)C[C@@]1(O)[C@H]2Cc3ccc(O)c4c3[C@@]1(CCN2CC1CC1)[C@H]5O4 [nor-Binaltorphamine (BNI), nor-Binaltorphamine]
selective fat intake (kappa-opioidergic antagonist): mimicked the effect of enterostatin

NCCc1c[nH]c2ccc(O)cc12 [serotonin]
dietary fat intake (injections into the PVN): inhibited dietary fat intake

Nc1ncnc2c1nc(Br)n2[C@@H]1O[C@@H]2COP(=O)(O)O[C@H]2[C@H]1O [8-Br-cAMP]
effect on enterostatin inhibition of insulin secretion (islet cells): blocked
